Results as given in the Kinase Knowledgebase extract (Sharma et al. 2016).
pIC50: −log10 of the molar value.

target: EGFR (human) (UniProt P00533); details: her 14
Sequence (P00533 whole entry, looked up): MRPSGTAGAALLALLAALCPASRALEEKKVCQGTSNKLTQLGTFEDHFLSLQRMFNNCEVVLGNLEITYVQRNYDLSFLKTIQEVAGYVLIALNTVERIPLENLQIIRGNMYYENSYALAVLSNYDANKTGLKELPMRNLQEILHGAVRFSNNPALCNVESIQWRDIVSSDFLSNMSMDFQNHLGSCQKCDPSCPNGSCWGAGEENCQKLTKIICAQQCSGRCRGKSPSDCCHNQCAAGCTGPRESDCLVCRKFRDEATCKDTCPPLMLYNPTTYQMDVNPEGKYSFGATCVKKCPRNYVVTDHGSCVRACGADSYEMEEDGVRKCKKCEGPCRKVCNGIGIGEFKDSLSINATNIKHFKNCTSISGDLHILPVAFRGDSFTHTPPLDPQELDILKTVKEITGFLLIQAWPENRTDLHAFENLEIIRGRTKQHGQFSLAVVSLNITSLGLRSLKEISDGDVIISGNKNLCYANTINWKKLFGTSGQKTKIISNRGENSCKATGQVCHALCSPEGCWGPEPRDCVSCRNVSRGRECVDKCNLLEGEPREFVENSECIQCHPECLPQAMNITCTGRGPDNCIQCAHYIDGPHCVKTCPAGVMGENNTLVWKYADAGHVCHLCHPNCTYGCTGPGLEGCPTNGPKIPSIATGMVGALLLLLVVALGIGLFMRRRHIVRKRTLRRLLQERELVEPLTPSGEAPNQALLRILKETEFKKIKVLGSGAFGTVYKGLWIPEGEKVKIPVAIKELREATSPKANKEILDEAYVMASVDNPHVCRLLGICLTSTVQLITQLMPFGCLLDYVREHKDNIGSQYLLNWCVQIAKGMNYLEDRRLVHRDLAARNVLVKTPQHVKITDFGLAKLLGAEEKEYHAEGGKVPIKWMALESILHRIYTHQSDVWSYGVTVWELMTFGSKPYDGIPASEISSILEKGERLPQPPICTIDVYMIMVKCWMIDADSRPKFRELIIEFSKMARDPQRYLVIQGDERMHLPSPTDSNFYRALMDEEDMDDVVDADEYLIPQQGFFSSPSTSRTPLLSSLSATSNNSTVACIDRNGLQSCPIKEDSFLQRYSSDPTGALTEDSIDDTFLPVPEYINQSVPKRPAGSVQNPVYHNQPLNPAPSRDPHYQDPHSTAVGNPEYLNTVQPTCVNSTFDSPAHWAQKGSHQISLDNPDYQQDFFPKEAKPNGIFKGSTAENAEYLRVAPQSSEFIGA

Row | SMILES | pIC50
1 | COc1cc(/C=C(\C#N)C(N)=O)cc(CSc2ccccc2C(=O)O)c1O | < 4.30
2 | COc1cc(C=C(C#N)C#N)cc(CSCC(=O)O)c1O | < 4.30
3 | COc1cc(/C=C(\C#N)C(N)=O)cc(CSc2ccc3ccccc3c2)c1O | 5.00
4 | N#C/C(=C\c1cc(O)c(O)c(CSc2nc3ccccc3s2)c1)C(N)=O | < 4.30
5 | COc1cc(/C=C(\C#N)C(N)=O)cc(CSc2ccc(O)cc2)c1O | 5.70
6 | COc1cc(C=C(C#N)C#N)cc(CSc2ccccc2)c1O | 5.22
7 | Cc1cc(C=C(C#N)C#N)cc(O)c1O | 4.89
8 | COc1cc(/C=C(\C#N)C(N)=O)cc(CSc2ccccn2)c1O | 4.80
9 | COc1cc(C=C(C#N)C#N)cc(CSc2ccccc2C(=O)O)c1O | < 4.30
10 | COc1cc(/C=C(\C#N)C(N)=O)cc(CSc2ccccc2)c1O | 4.90
11 | COc1cc(/C=C(\C#N)C(N)=O)cc(CSc2nc3ccccc3o2)c1O | 5.22
12 | COc1cc(C=C(C#N)C#N)cc(CS(=O)(=O)c2ccc(C)cc2)c1O | 4.82
13 | COc1cc(/C=C(\C#N)C(N)=O)cc(CSCc2ccccc2Cl)c1O | 5.00
14 | N#C/C(=C\c1cc(O)c(O)c(CSCc2ccccc2)c1)C(N)=O | 5.52
15 | COc1cc(/C=C(\C#N)C(=O)c2ccc(O)c(O)c2)cc(CSCc2ccccc2)c1O | 5.70
16 | COc1cc(/C=C(\C#N)C(N)=O)cc(CSCc2ccc(Cl)cc2)c1O | 4.70
17 | COc1cc(/C=C(\C#N)C(N)=O)cc(CSc2nc3ccccc3[nH]2)c1O | 4.46
18 | COc1cc(/C=C(\C#N)C(N)=O)cc(CSc2ccccc2NC(C)=O)c1O | 5.05
19 | COc1cc(/C=C(\C#N)C(N)=O)cc(CSCc2ccccc2)c1O | 4.90

target: EGFR (UniProt P00533); details: not given
Sequence (P00533 whole entry, looked up): as above

Row | SMILES | pIC50
20 | COc1cc(/C=C(\C#N)C(=O)c2ccc(C)cc2)cc(CSCc2ccccc2)c1O | 5.35
